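How tested: cells in 96-well plates exposed to compound for 48 hours at five concentrations. Here, GI50 denotes the concentration required for 50% inhibition of growth.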 The source made the active and inactive calls. Cut-off read from the data, not from the text of the source: active = GI50 up to about 1.1 µM and inactive = higher.
Experiments:
Test in all cases: DTP human tumour cell line panel, 48 h
OVCAR-8 = system: OVCAR-8
HCT-15 = system: HCT-15
LOX IMVI = system: LOX IMVI
SK-OV-3 = system: SK-OV-3
U-251 = system: U-251
A498 = system: A498
SK-MEL-28 = system: SK-MEL-28
RPMI-8226 = system: RPMI-8226
LXFL 529 = system: LXFL 529
SF-268 = system: SF-268
UACC-62 = system: UACC-62
K562 = system: K562
HOP-92 = system: HOP-92
SNB-19 = system: SNB-19
SF-539 = system: SF-539
SNB-75 = system: SNB-75
PC-3 = system: PC-3
NCI-H226 = system: NCI-H226
MDA-MB-231 = system: MDA-MB-231
DU-145 = system: DU-145

Row | Compound | GI50 (OVCAR-8) | GI50 (HCT-15) [µM] | GI50 (LOX IMVI) | GI50 (SK-OV-3) | GI50 (U-251) | GI50 (A498) | GI50 (SK-MEL-28) | GI50 (RPMI-8226) | GI50 (LXFL 529) | GI50 (SF-268) | GI50 (UACC-62) | GI50 (K562) | GI50 (HOP-92) | GI50 (SNB-19) | GI50 (SF-539) | GI50 (SNB-75) | GI50 (PC-3) | GI50 (NCI-H226) | GI50 (MDA-MB-231) | GI50 (DU-145)
1 | O=C(O)c1oc2cccc3c2c1CCC3 | > 100 µM (inactive) | > 100 | > 100 µM (inactive) | > 100 µM (inactive) | > 100 µM (inactive) | > 100 µM (inactive) | > 100 µM (inactive) | > 100 µM (inactive) | > 100 µM (inactive) | > 100 µM (inactive) | 41.7 µM (inactive) | > 100 µM (inactive) | > 100 µM (inactive) | > 100 µM (inactive) | > 100 µM (inactive) | 99.3 µM (inactive) | – | – | – | –
2 | O=C(O)Cn1c(=O)[nH]c(=O)c2[nH]cnc21 | > 100 µM (inactive) | > 100 | > 100 µM (inactive) | > 100 µM (inactive) | > 100 µM (inactive) | > 100 µM (inactive) | > 100 µM (inactive) | – | > 100 µM (inactive) | > 100 µM (inactive) | > 100 µM (inactive) | > 100 µM (inactive) | – | > 100 µM (inactive) | > 100 µM (inactive) | > 100 µM (inactive) | – | – | – | –
3 | COc1ccc(NC(=O)CC(=O)N2N=C(C)C(/N=N\c3ccc(S(=O)(=O)c4ccc(/N=N/C5C(=O)N(C(=O)CC(=O)Nc6ccc(OC)cc6)N=C5C)cc4)cc3)C2=O)cc1 (stereo not given) | > 100 µM (inactive) | > 100 | > 100 µM (inactive) | > 100 µM (inactive) | > 100 µM (inactive) | > 100 µM (inactive) | > 100 µM (inactive) | > 100 µM (inactive) | – | 35.9 µM (inactive) | > 100 µM (inactive) | 50 µM (inactive) | 63.5 µM (inactive) | > 100 µM (inactive) | > 100 µM (inactive) | 24.9 µM (inactive) | > 100 µM (inactive) | > 100 µM (inactive) | > 100 µM (inactive) | > 100 µM (inactive)
4 | COC(=O)N/N=C(\C)C(CN1CCCCC1)C(C1=C(O)c2ccccc2OC1)c1ccccc1 (stereo not given) | > 100 µM (inactive) | > 100 | > 100 µM (inactive) | > 100 µM (inactive) | 43.1 µM (inactive) | > 100 µM (inactive) | > 100 µM (inactive) | > 100 µM (inactive) | > 100 µM (inactive) | > 100 µM (inactive) | 86.3 µM (inactive) | > 100 µM (inactive) | – | > 100 µM (inactive) | > 100 µM (inactive) | 95.7 µM (inactive) | – | > 100 µM (inactive) | – | –
5 | Cc1cc(N(CCC#N)S(=O)(=O)c2ccccc2)ccc1/C=C1\N=C(c2ccc(Cl)cc2)OC1=O | > 100 µM (inactive) | > 100 | > 100 µM (inactive) | – | 54 µM (inactive) | > 100 µM (inactive) | > 100 µM (inactive) | > 100 µM (inactive) | > 100 µM (inactive) | > 100 µM (inactive) | > 100 µM (inactive) | > 100 µM (inactive) | > 100 µM (inactive) | > 100 µM (inactive) | > 100 µM (inactive) | – | – | 38.1 µM (inactive) | – | –
6 | CN(O)C(=O)Cc1ccccc1 | > 100 µM (inactive) | – | > 100 µM (inactive) | > 100 µM (inactive) | > 100 µM (inactive) | – | > 100 µM (inactive) | > 100 µM (inactive) | > 100 µM (inactive) | > 100 µM (inactive) | > 100 µM (inactive) | > 100 µM (inactive) | > 100 µM (inactive) | > 100 µM (inactive) | > 100 µM (inactive) | 67 µM (inactive) | – | > 100 µM (inactive) | – | –
7 | C/C(=C\CNc1ncnc2c1ncn2C1CCCCO1)COP(=O)(O)O (stereo not given) | > 100 µM (inactive) | > 100 | > 100 µM (inactive) | > 100 µM (inactive) | > 100 µM (inactive) | – | > 100 µM (inactive) | > 100 µM (inactive) | > 100 µM (inactive) | > 100 µM (inactive) | > 100 µM (inactive) | > 100 µM (inactive) | > 100 µM (inactive) | > 100 µM (inactive) | > 100 µM (inactive) | > 100 µM (inactive) | – | > 100 µM (inactive) | – | –
8 | CCOC(=O)C=C1CCN(C(=O)c2ccccc2)CC1 | > 100 µM (inactive) | > 100 | > 100 µM (inactive) | > 100 µM (inactive) | > 100 µM (inactive) | > 100 µM (inactive) | > 100 µM (inactive) | > 100 µM (inactive) | > 100 µM (inactive) | > 100 µM (inactive) | > 100 µM (inactive) | > 100 µM (inactive) | > 100 µM (inactive) | > 100 µM (inactive) | > 100 µM (inactive) | > 100 µM (inactive) | – | – | – | –
9 | CC(C)(C)c1ccc2c(c1)C(O)(c1ccccc1)c1cc(C(C)(C)C)ccc1C2(O)C(F)(F)F (stereo not given) | 2.12 µM (inactive) | 1.39 | 1.82 µM (inactive) | 3.24 µM (inactive) | 1.81 µM (inactive) | 1.83 µM (inactive) | 2.09 µM (inactive) | – | 1.97 µM (inactive) | 2.27 µM (inactive) | 1.63 µM (inactive) | 2.56 µM (inactive) | 1.97 µM (inactive) | 2.27 µM (inactive) | 1.74 µM (inactive) | 2.13 µM (inactive) | – | 1.05 µM (active) | – | –
10 | COc1ccc2c(c1)N1CCc3cc(OC)c(OC)cc3C1C2 (stereo not given) | > 100 µM (inactive) | – | 98.6 µM (inactive) | > 100 µM (inactive) | > 100 µM (inactive) | 41.4 µM (inactive) | 89.1 µM (inactive) | – | 34 µM (inactive) | > 100 µM (inactive) | 23.6 µM (inactive) | 32.3 µM (inactive) | 79.8 µM (inactive) | > 100 µM (inactive) | > 100 µM (inactive) | – | – | 35.5 µM (inactive) | – | –
11 | O=c1[nH]c(=O)n(C2CC(O)C(CO)O2)cc1C#Cc1ccc(F)cc1 (stereo not given) | > 100 µM (inactive) | > 100 | > 100 µM (inactive) | > 100 µM (inactive) | > 100 µM (inactive) | – | > 100 µM (inactive) | > 100 µM (inactive) | > 100 µM (inactive) | > 100 µM (inactive) | > 100 µM (inactive) | > 100 µM (inactive) | – | > 100 µM (inactive) | > 100 µM (inactive) | > 100 µM (inactive) | – | > 100 µM (inactive) | – | –
12 | N=C(N)NNC(=O)CCn1[nH]c(=O)c(Cl)c(Cl)c1=O | > 100 µM (inactive) | > 100 | > 100 µM (inactive) | > 100 µM (inactive) | > 100 µM (inactive) | – | > 100 µM (inactive) | > 100 µM (inactive) | > 100 µM (inactive) | > 100 µM (inactive) | > 100 µM (inactive) | > 100 µM (inactive) | – | > 100 µM (inactive) | > 100 µM (inactive) | > 100 µM (inactive) | – | > 100 µM (inactive) | – | –
13 | Cc1ccc(NC(=O)CSc2nnc(-c3ccc(/N=C\c4ccc(Cl)cc4)cc3)o2)cc1 | > 100 µM (inactive) | > 100 | > 100 µM (inactive) | > 100 µM (inactive) | > 100 µM (inactive) | – | > 100 µM (inactive) | > 100 µM (inactive) | > 100 µM (inactive) | > 100 µM (inactive) | > 100 µM (inactive) | > 100 µM (inactive) | – | > 100 µM (inactive) | – | 72.8 µM (inactive) | – | > 100 µM (inactive) | – | –
14 | CCOC(=O)c1nc(C)oc1C(F)(F)F | > 100 µM (inactive) | > 100 | > 100 µM (inactive) | > 100 µM (inactive) | > 100 µM (inactive) | > 100 µM (inactive) | > 100 µM (inactive) | – | > 100 µM (inactive) | > 100 µM (inactive) | > 100 µM (inactive) | > 100 µM (inactive) | > 100 µM (inactive) | > 100 µM (inactive) | > 100 µM (inactive) | > 100 µM (inactive) | – | > 100 µM (inactive) | – | –
15 | ONc1ncnc2[nH]cnc12 | > 100 µM (inactive) | > 100 | – | – | > 100 µM (inactive) | – | > 100 µM (inactive) | 58.2 µM (inactive) | > 100 µM (inactive) | > 100 µM (inactive) | > 100 µM (inactive) | 64.4 µM (inactive) | > 100 µM (inactive) | > 100 µM (inactive) | > 100 µM (inactive) | > 100 µM (inactive) | – | > 100 µM (inactive) | – | –
16 | CCC(=C/[C@H](C)C/C=C/C(C)=C/[C@@H](C)C(=O)[C@@H](C)[C@H](O)[C@@H](C)CC)/C=C/[C@H]1CC=CC(=O)O1 [CALLYSTATIN A] | < 0.0012 µM (active) | < 0.0012 | < 0.0012 µM (active) | < 0.0012 µM (active) | < 0.0012 µM (active) | < 0.0012 µM (active) | < 0.0012 µM (active) | 2.67 µM (inactive) | – | < 0.0012 µM (active) | < 0.0012 µM (active) | < 0.0012 µM (active) | 0.329 µM (active) | < 0.0012 µM (active) | < 0.0012 µM (active) | < 0.0012 µM (active) | < 0.0012 µM (active) | 0.0168 µM (active) | < 0.0012 µM (active) | < 0.0012 µM (active)
17 | OC(CCl)CN1CC[N+]2(CC1)CC[N+]1(CCN(CC(O)CCl)CC1)CC2 (stereo not given) [PROSPIDIUM CHLORIDE] | > 50 µM (inactive) | > 50 | – | > 50 µM (inactive) | > 50 µM (inactive) | > 50 µM (inactive) | > 50 µM (inactive) | > 50 µM (inactive) | > 50 µM (inactive) | > 50 µM (inactive) | – | > 50 µM (inactive) | > 50 µM (inactive) | > 50 µM (inactive) | > 50 µM (inactive) | > 50 µM (inactive) | – | > 50 µM (inactive) | – | –

Reference: ChEMBL document CHEMBL1201862, “PubChem BioAssay data set” (2004)
